Experimental data as given in patent publication US8563578B2, “Antitumor properties of NO modified protease inhibitors” (Onconox APS, priority 2008, dated 2013).

Tests used:
C6 cells = experiment: LDH release assay, C6; assay type: cell-based; conditions: 24 h, different doses
Method: Reduction of 3-4,5-dimethylthiazol-2-yl)-2,5-diphenyltetrazolium bromide (MTT) to formazan depends on mitochondrial activity of cultured cells, absorption of crystal violet dye correlates with the number of adherent, live cells, while the release of cytosolic lactate dehydrogenase (LDH) indicates the disruption of membrane integrity caracteristic for necrotic cells. The cells were seeded in flat-bottom 96-well plates in a final volume of 200 μl of culture medium containing different agents, and the assays were performed after 24 h incubation exactly as previously described (Mijatovic et al. 2004, Decker et al., 1998). Mitohondrial-dependent production of formazan and intensity of absorbed crystal violet by adherent cells were assessed by an automated microplate reader at 570 nm, while the pyruvate-mediated conversion of 2,4-dinitrophenylhydrazine into visible hydrazone precipitate in LDH assay was measured at 492 nm. The % of cytotoxicity as indicated by LDH release was calculated as: (E−C)/(T−C)×100, where E is the experimental absorbance of cell cultures, C is the control absorbance of cell-free culture medium, and T is the absorbance corresponding to the maximal (100%) LDH release of Triton-lysed cells.
FIG. 4. […] Results are calculated as indicated in materials and methods and presented as mean±SD from representative of three independent experiment (*p <0.05). […]

p-Akt in B16 cells = experiment: Akt phosphorylation (cELISA, Western blot), B16; assay type: cell-based, mouse; conditions: 18.8 μM, B16 as representative (similar in C6)
Excerpt: A slightly modified method for cell-based ELISA (cELISA) by Versteeg (Versteed et al., 2000) was used to measure the expression of galactocerebroside, glial fibrilar acidic protein (GFAP), myelin basic protein (MBP), cyclin D3, p53 and p-AKT. Briefly, at the end of cultivation period cells were fixed in 4% paraformaldehyde, endogenous peroxydase was quenched with 1% H2O2 in PBS containing 0.1% Triton X-100 (PBST), and unspecific binding of antibodies blocked with PBST solution containing 10% FCS. […] The absorbance at 450 nm was measured in an automated microplate reader 15 min after incubation with peroxydase substrate TMB and subsequently to addition of 0.1 M HCl. To facilitate comparison between treatments, the obtained absorbances were corrected for the cell number that was determined by crystal violet staining, as described in the original protocol. […]
FIG. 6. […] (C) B16 cells (1×10^4 cells/well) were incubated for 24 h with 18.8 μM Saq-NO2 with or without Akt VI (50μg/ml) or 3-MA (1 mM) and cell viability was assessed by MTT. […]

| SMILES | LDH release (cytotoxicity, necrosis) (C6 cells) | p-Akt expression / phosphorylation of AKT (p-Akt in B16 cells) |
| --- | --- | --- |
| CC(C)(C)NC(=O)[C@@H]1C[C@@H]2CCCC[C@@H]2CN1C[C@@H](O)[C@H](Cc1ccccc1)NC(=O)[C@H](CC(N)=O)NC(=O)c1ccc2ccccc2n1 [Saq, Saquinavir, reference compound] | induced LDH release in both cell lines in a dose-dependent way | abrogated p-Akt expression |
| CC(C)(C)NC(=O)[C@@H]1C[C@@H]2CCCC[C@@H]2CN1C[C@@H](O[N+](=O)[O-])[C@H](Cc1ccccc1)NC(=O)[C@H](CC(N)=O)NC(=O)c1ccc2ccccc2n1 [Saq-NO2, nitric ester of Saquinavir] | significant percentage of C6 cytotoxicity was detected only upon the highest dose | induced considerable transient phosphorylation of AKT |
